This note sets out measurements from patent US20180170903A1, “PYRIDIN-3-YL ACETIC ACID DERIVATIVES AS INHIBITORS OF HUMAN IMMUNODEFICIENCY VIRUS REPLICATION” (ViiV HEALTHCARE UK (NO.5) LIMITED, priority 2015, published 2018).

For this test, the system named is NL-RLuc virus (recombinant HIV NL4-3 proviral clone with Renilla Luciferase) in MT-2 cells. Nature of the test: Inhibition of HIV Replication (NL-RLuc luciferase reporter virus, MT-2 cells). The class given is cell-based. The settings on record: MT2, 120 h. Put shortly: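 MT-2 cells were infected with multi-cycle NL-RLuc virus in the presence of serial compound dilutions, in RPMI 1640 with 10% FBS. After 5 days, virus growth was read as Renilla luciferase signal. EC50 was derived from the median effect equation over at least 2 experiments; classes were A ≤100 nM, B 100 nM–1 µM, C >1 µM.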
(A reporter such as luciferase makes a cellular process visible.)

Each structure is given as a SMILES string. Read-outs that look alike come from different tables or passages of the source. Some results are limits rather than exact numbers.

`Cc1nc(C)c([C@H](OC(C)(C)C)C(=O)O)c(N2CCC(C)(C)CC2)c1-c1ccc(CN(Cc2ccc(F)cc2)S(=O)(=O)c2ccccc2)cc1` [Example 36, (S)-2-(tert-butoxy)-2-(4-(4,4-dimethylpiperidin-1-yl)-5-(4-((N-(4-fluorobenzyl)phenylsulfonamido)methyl)phenyl)-2,6-dimethylpyridin-3-yl)acetic acid]: the EC50 (read-out: Activity) is below 0.1 µM. On the same count and under the same terms, the value for `Cc1cc(C(=O)N(Cc2ccc(F)cc2)Cc2ccc(-c3c(C)nc(C)c([C@H](OC(C)(C)C)C(=O)O)c3N3CCC(C)(C)CC3)cc2)c(C)o1` [Example 29, (S)-2-(terr-butoxy)-2-(4-(4,4-dimethylpiperidin-1-yl)-5-(4-((N-(4-fluorobenzyl)-2,5-dimethylfuran-3-carboxamido)methyl)phenyl)-2,6-dimethylpyridin-3-yl)acetic acid] was below 0.1 µM.

On to `Cc1nc(C)c([C@H](OC(C)(C)C)C(=O)O)c(N2CCC(C)(C)CC2)c1-c1ccc(CNCc2ccc(C(=O)O)cc2)cc1` [Example 19, (S)-4-(((4-(5-(tert-butoxy(carboxy)methyl)-4-(4,4-dimethylpiperidin-1-yl)-2,6-dimethylpyridin-3-yl)benzyl)amino)methyl)benzoic acid], for which the EC50 is, setting by setting: (read-out: Activity) above 1 µM; (read-out: EC50 μM) 2.07 µM. On to `CCC(=O)N(Cc1ccc(F)cc1)Cc1ccc(-c2c(C)nc(C)c([C@H](OC(C)(C)C)C(=O)O)c2N2CCC(C)(C)CC2)cc1` [Example 22, (S)-2-(tert-butoxy)-2-(4-(4,4-dimethylpiperidin-1-yl)-5-(4-((N-(4-fluorobenzyl)propionamido)methyl)phenyl)-2,6-dimethylpyridin-3-yl)acetic acid], for which the EC50 (read-out: Activity) was below 0.1 µM. Still for that read-out and setting: the value for `Cc1nc(C)c([C@H](OC(C)(C)C)C(=O)O)c(N2CCC(C)(C)CC2)c1-c1ccc(CN(Cc2ccc(F)cc2)C(=O)C2CCCC2)cc1` [Example 20, (S)-2-(tert-butoxy)-2-(4-(4,4-dimethylpiperidin-1-yl)-5-(4-((N-(4-fluorobenzyl)cyclopentanecarboxamido)methyl)phenyl)-2,6-dimethylpyridin-3-yl)acetic acid] was below 0.1 µM. `Cc1nc(C)c([C@H](OC(C)(C)C)C(=O)O)c(N2CCC(C)(C)CC2)c1-c1ccc(CN(Cc2ccc(F)cc2)C(=O)c2ccccc2F)cc1` [Example 27, (S)-2-(tert-butoxy)-2-(4-(4,4-dimethylpiperidin-1-yl)-5-(4-((2-fluoro-N-(4-fluorobenzyl)benzamido)methyl)phenyl)-2,6-dimethylpyridin-3-yl)acetic acid]: the EC50 reads like this: (read-out: Activity) below 0.1 µM; (read-out: EC50 μM) 0.008 µM. `COc1ccccc1C(=O)N(Cc1ccc(F)cc1)Cc1ccc(-c2c(C)nc(C)c([C@H](OC(C)(C)C)C(=O)O)c2N2CCC(C)(C)CC2)cc1` [Example 26, (S)-2-(tert-butoxy)-2-(4-(4,4-dimethylpiperidin-1-yl)-5-(4-((N-(4-fluorobenzyl)-2-methoxybenzamido)methyl)phenyl)-2,6-dimethylpyridin-3-yl)acetic acid]: the EC50 (read-out: Activity) is below 0.1 µM. With `Cc1cc(CNCc2ccc(-c3c(C)nc(C)c([C@H](OC(C)(C)C)C(=O)O)c3N3CCC(C)(C)CC3)cc2)ccc1F` [Example 1, (S)-2-(tert-Butoxy)-2-(4-(4,4-dimethylpiperidin-1-yl)-5-(4-(((4-fluoro-3-methylbenzyl)amino)methyl)phenyl)-2,6-dimethylpyridin-3-yl)acetic acid], the EC50 was below 0.1 µM (read-out: Activity) and 0.013 µM (read-out: EC50 μM). As to `Cc1nc(C)c([C@H](OC(C)(C)C)C(=O)O)c(N2CCC(C)(C)CC2)c1-c1ccc(CSCc2ccc(F)cc2)cc1` [Example 52, (S)-2-(tert-Butoxy)-2-(4-(4,4-dimethylpiperidin-1-yl)-5-(4-(((4-fluorobenzyl)thio)methyl)phenyl)-2,6-dimethylpyridin-3-yl)acetic acid], the EC50 (read-out: Activity) was below 0.1 µM. Consider `Cc1nc(C)c([C@H](OC(C)(C)C)C(=O)O)c(N2CCC(C)(C)CC2)c1-c1ccc(CN(Cc2ccc(F)cc2)CC2CCCO2)cc1` (stereo partly drawn) [Example 3, (2S)-2-(tert-Butoxy)-2-(4-(4,4-dimethylpiperidin-1-yl)-5-(4-(((4-fluorobenzyl) ((tetrahydrofuran-2-yl)methyl)amino)methyl)phenyl)-2,6-dimethylpyridin-3-yl)acetic acid], for which the EC50 (read-out: Activity) was below 0.1 µM. Same read-out and setting: the value for `Cc1nc(C)c([C@H](OC(C)(C)C)C(=O)O)c(N2CCC(C)(C)CC2)c1-c1ccc(CN(C)CCc2ccc(F)cc2)cc1` [Example 5, (S)-2-(tert-butoxy)-2-(4-(4,4-dimethylpiperidin-1-yl)-5-(4-(((4-fluorophenethyl)(methyl)amino)methyl)phenyl)-2,6-dimethylpyridin-3-yl)acetic acid] was below 0.1 µM.
